Experimental data: ChEMBL document CHEMBL4616634, “4β-Hydroxywithanolide E from Goldenberry (Whole Fruits of Physalis peruviana L.) as a Promising Agent against Chronic Obstructive Pulmonary Disease” (J Nat Prod, 2020)
Activity calls are given as the source filed them.

Experiments:
Assay type in all cases: functional, organism-based
[1] = system: Mus musculus; assay: Antiinflammatory activity in C57BL/6 mouse model of CS-induced pulmonary injury assessed as reduction in thickening of the alveolar septa in lungs at 50 mg/kg, ip for 5 days by hematoxylin and eosin staining based fluorescence microscopic analysis
[2] = system: Mus musculus; assay: Antiinflammatory activity in C57BL/6 mouse model of CS-induced pulmonary injury assessed as reduction in hyperplasia of pneumo-cytes in lungs at 50 mg/kg, ip for 5 days by hematoxylin and eosin staining based fluorescence microscopic analysis
[3] = system: Mus musculus; assay: Antiinflammatory activity in C57BL/6 mouse model of CS-induced pulmonary injury assessed as reduction in distinct infiltration of leukocytes in lungs at 50 mg/kg, ip for 5 days by hematoxylin and eosin staining based fluorescence microscopic analysis
[4] = system: Mus musculus; assay: Antiinflammatory activity in C57BL/6 mouse model of CS-induced pulmonary injury assessed as reduction in goblet cell hyperplasia in peribronchial in lungs at 50 mg/kg, ip for 5 days by hematoxylin and eosin staining based fluorescence microscopic analysis
[5] = system: Mus musculus; assay: Antiinflammatory activity in C57BL/6 mouse model of CS-induced pulmonary injury assessed as reduction in goblet cell hyperplasia in perivascular areas in lungs at 50 mg/kg, ip for 5 days by hematoxylin and eosin staining based fluorescence microscopic analysis
[6] = system: Mus musculus; assay: Antiinflammatory activity in C57BL/6 mouse model of CS-induced pulmonary injury assessed as reduction in 8-oxo-dG in lungs at 50 mg/kg, ip for 5 days by ELISA
[7] = system: Mus musculus; assay: Antiinflammatory activity in C57BL/6 mouse model of CS-induced pulmonary injury assessed as reduction in thickening of the alveolar septa in lungs at 1 mg/kg, ip for 5 days by hematoxylin and eosin staining based fluorescence microscopic analysis
[8] = system: Mus musculus; assay: Antiinflammatory activity in C57BL/6 mouse model of CS-induced pulmonary injury assessed as reduction in hyperplasia of pneumo-cytes in lungs at 1 mg/kg, […] by hematoxylin and eosin staining based fluorescence microscopic analysis
[9] = system: Mus musculus; assay: Antiinflammatory activity in C57BL/6 mouse model of CS-induced pulmonary injury assessed as reduction in distinct infiltration of leukocytes in lungs at 1 mg/kg, ip for 5 days by hematoxylin and eosin staining based fluorescence microscopic analysis
[10] = system: Mus musculus; assay: Antiinflammatory activity in C57BL/6 mouse model of CS-induced pulmonary injury assessed as reduction in goblet cell hyperplasia in peribronchial in lungs at 1 mg/kg, ip for 5 days by hematoxylin and eosin staining based fluorescence microscopic analysis
[11] = system: Mus musculus; assay: Antiinflammatory activity in C57BL/6 mouse model of CS-induced pulmonary injury assessed as reduction in goblet cell hyperplasia in perivascular areas in lungs at 1 mg/kg, ip for 5 days by hematoxylin and eosin staining based fluorescence microscopic analysis
[12] = system: Mus musculus; assay: Antiinflammatory activity in C57BL/6 mouse model of CS-induced pulmonary injury assessed as reduction in 8-oxo-dG in lungs at 1 mg/kg, ip for 5 days by ELISA

Measured: Activity

CC(C)(C)c1cc(O)ccc1O
active: [1] | [2] | [3] | [4] | [5] | [6]

C[C@@H]1C[C@H]2[C@@H]3CCC4=CC(=O)C=C[C@]4(C)[C@@]3(F)[C@@H](O)C[C@]2(C)[C@@]1(O)C(=O)CO
active: [7] | [8] | [9] | [10] | [11] | [12]
